Like-named read-outs stand apart in the source and are kept apart here.
Columns and labels:
M1 muscarinic receptor = target: T1, M1 muscarinic receptor (Homo sapiens, UniProt P11229); assay: Functional mobilization of intracellular calcium (FLIPR) in M1-CHO cells; type: cell-based
T1 construct: expressed in transfected cells; host or cells: CHO (M1-CHO)
T1 sequence (P11229 1-460): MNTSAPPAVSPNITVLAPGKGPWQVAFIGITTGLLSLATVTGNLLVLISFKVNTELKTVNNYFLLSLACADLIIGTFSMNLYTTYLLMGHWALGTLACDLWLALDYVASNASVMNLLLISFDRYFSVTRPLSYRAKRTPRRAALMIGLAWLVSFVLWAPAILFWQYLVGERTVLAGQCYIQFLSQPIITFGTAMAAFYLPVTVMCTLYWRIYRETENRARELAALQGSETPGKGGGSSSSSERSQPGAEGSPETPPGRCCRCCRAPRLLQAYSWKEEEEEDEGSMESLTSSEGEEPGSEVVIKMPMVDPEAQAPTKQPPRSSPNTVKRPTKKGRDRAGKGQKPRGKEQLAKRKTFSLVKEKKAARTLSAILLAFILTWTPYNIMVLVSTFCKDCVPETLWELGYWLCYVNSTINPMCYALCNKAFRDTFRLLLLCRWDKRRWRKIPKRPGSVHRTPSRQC
Summary of the method: (§1)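 Two modes: direct compound addition for agonism, or 15 min compound pre-incubation (or co-application) before carbachol at EC80 for inhibition. Calcium signal from Fluo-3 AM or Calcium 3 dye in CHO cells, 1 mM probenecid, pH 7.4, read 60 sec at 488/540 nm; DMSO 0.5% final.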

M4 muscarinic receptor = target: T2, M4 muscarinic receptor (Homo sapiens, UniProt P08173); assay: Functional mobilization of intracellular calcium (FLIPR) in M4-CHO cells; type: cell-based
T2 construct: expressed in transfected cells; host or cells: CHO (M4-CHO)
T2 sequence (P08173 1-479): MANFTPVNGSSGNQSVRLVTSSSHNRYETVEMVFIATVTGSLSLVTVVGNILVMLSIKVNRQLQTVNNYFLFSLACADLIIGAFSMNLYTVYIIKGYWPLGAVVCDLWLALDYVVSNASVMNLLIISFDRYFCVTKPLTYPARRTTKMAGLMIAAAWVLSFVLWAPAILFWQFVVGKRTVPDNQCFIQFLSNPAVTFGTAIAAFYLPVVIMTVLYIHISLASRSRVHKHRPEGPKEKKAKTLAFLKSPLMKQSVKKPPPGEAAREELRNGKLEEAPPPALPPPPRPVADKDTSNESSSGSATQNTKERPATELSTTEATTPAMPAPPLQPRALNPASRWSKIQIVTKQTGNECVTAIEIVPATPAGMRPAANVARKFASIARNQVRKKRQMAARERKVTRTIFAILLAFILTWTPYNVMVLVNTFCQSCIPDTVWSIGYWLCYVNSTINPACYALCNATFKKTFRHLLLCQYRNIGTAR
Summary of the method: as §1

[1] = M1 receptor, calcium mobilization
[2] = M1 receptor, calcium mobilization, read-out: M1 Efficacy
[3] = M4 receptor, calcium mobilization
[4] = M4 receptor, calcium mobilization, read-out: M4 Efficacy
[5] = Table 4, 100% efficacy is the maximum response obtained with the Carbachol control
[6] = Table 4, modulating M1 receptor
[7] = Table 4, modulating M4 receptor
[8] = Table 4, M1 receptor, calcium mobilization (FLIPR)
[9] = Table 4, M4 receptor, calcium mobilization (FLIPR)
[10] = M1-CHO cells, calcium mobilization (FLIPR)
[11] = M1-CHO cells, calcium mobilization (FLIPR), read-out: M1 Efficacy
[12] = M4-CHO cells, calcium mobilization (FLIPR)
[13] = M4-CHO cells, calcium mobilization (FLIPR), read-out: M4 Efficacy

Compound | M1 Activity (M1 muscarinic receptor; [1]) | Emax (M1 muscarinic receptor; [2]) [%] | M4 Activity (M4 muscarinic receptor; [3]) | Emax (M4 muscarinic receptor; [4]) [%] | Emax (M1 muscarinic receptor; [5]) [%] | M1 Activity (M1 muscarinic receptor; [6]) | Emax (M4 muscarinic receptor; [5]) [%] | M4 Activity (M4 muscarinic receptor; [7]) | further results
C#CCCOC(=O)N1CCC(N2CCC3(CC2)CN(C(=O)N(C)C)c2ccc(F)cc23)CC1 [compound 127] | xxx (activity was measured to be less than 0.1 μM) | 65 to 85 | xx (activity was measured to be between 0.1 μM and 1.0 μM) | < 65 |  |  |  |  | 
COc1cc2c(cc1OC)C1(CCN(C3CCCCCC3)CC1)C[C@@H]2NC(C)=O [compound 442] |  |  |  |  | < 25 | x (activity was measured to be greater than 5.0 μM) | < 25 | x (activity was measured to be greater than 5.0 μM) | 
CCOC(=O)N1CCC(N2CCC3(CC2)CN(C(=O)NC(C)C)c2ccccc23)CC1 [compound 494] |  |  |  |  | 25 to 100 | xx (activity was measured to be between 2.0 μM and 5.0 μM) | 25 to 100 | xxx (activity was measured to be less than 2.0 μM) | 
CC(=O)N1CC2(CCN(C3CCN(C(=O)OCCF)CC3)CC2)c2cc(F)ccc21 [compound 172] | x (activity was measured to be greater than 1.0 μM) | > 85 | x (activity was measured to be greater than 1.0 μM) | 65 to 85 |  |  |  |  | 
CC(C)OC(=O)N1CCC(N2CCC3(CC2)CN(C(=O)N(C)C)c2ccc(F)cc23)CC1 [compound 54] | xxx (activity was measured to be less than 0.1 μM) | > 85 | xx (activity was measured to be between 0.1 μM and 1.0 μM) | 65 to 85 |  |  |  |  | 
CN(C)C(=O)N1CC2(CCN(C3CCCN(C(=O)OCCF)CC3)CC2)c2cc(F)ccc21 (stereo not shown) [compound 772] |  |  |  |  | 25 to 100 | xxx (activity was measured to be less than 2.0 μM) | 25 to 100 | xxx (activity was measured to be less than 2.0 μM) | 
Fc1ccc2c(c1)C1(CCN(C3CCCCC3)CC1)CN2 [compound 325] | x (activity was measured to be greater than 1.0 μM) | 65 to 85 | x (activity was measured to be greater than 1.0 μM) | < 65 |  |  |  |  | 
CC(=O)N1CC2(CCN(CC3CCCOC3)CC2)c2cc(F)ccc21 (stereo not shown) [compound 75] | xxx (activity was measured to be less than 0.1 μM) | < 65 | xx (activity was measured to be between 0.1 μM and 1.0 μM) | 65 to 85 |  |  |  |  | 
CCOC(=O)N1CC[C@@H](CN2CCC3(CC2)CN(C(=O)N(C)C)c2ccc(F)cc23)C1 [compound 974] |  |  |  |  | 25 to 100 |  | 25 to 100 |  | M1 Activity (M1 muscarinic receptor; [8]): xxx (activity was measured to be less than 2.0 μM); M4 Activity (M4 muscarinic receptor; [9]): xxx (activity was measured to be less than 2.0 μM)
CC(=O)NC1CCC2(CCN(CCC3CCOCC3)CC2)c2ccccc21 (stereo not shown) [compound 709] |  |  |  |  | 25 to 100 | xxx (activity was measured to be less than 2.0 μM) | < 25 | xxx (activity was measured to be less than 2.0 μM) | 
CCOC(=O)N1CCC(N2CCC3(CC2)CN(CCOC)c2ccc(F)cc23)CC1 [compound 391] |  |  |  |  |  |  |  |  | EC50 (M1 muscarinic receptor; [10]): 100 to 1000 nM; Emax (M1 muscarinic receptor; [11]): < 65%; EC50 (M4 muscarinic receptor; [12]): > 1000 nM; Emax (M4 muscarinic receptor; [13]): < 65%
CN(C)C(=O)N1CC2(CCN(C3CCN(c4ccncc4)CC3)CC2)c2cc(F)ccc21 [compound 458] |  |  |  |  | < 25 | x (activity was measured to be greater than 5.0 μM) | < 25 | x (activity was measured to be greater than 5.0 μM) | 
COC(=O)N1CCCC(N2CCC3(CC2)CN(C(C)=O)c2ccc(F)cc23)CC1 (stereo not shown) [compound 132] | xxx (activity was measured to be less than 0.1 μM) | > 85 | xxx (activity was measured to be less than 0.1 μM) | > 85 |  |  |  |  | 
CCOC(=O)N1CCC(N2CCC3(CC2)CN(C(C)=O)c2c(F)cccc23)CC1 [compound 381] |  |  |  |  |  |  |  |  | EC50 (M1 muscarinic receptor; [10]): < 100 nM; Emax (M1 muscarinic receptor; [11]): 65 to 85%; EC50 (M4 muscarinic receptor; [12]): > 1000 nM; Emax (M4 muscarinic receptor; [13]): < 65%
CC#CC(C)OC(=O)N1CC[C@@H](CN2CCC3(CC2)CN(C(=O)N(C)C)c2ccc(F)cc23)C1 (stereo partly shown) [compound 479] |  |  |  |  | 25 to 100 | xxx (activity was measured to be less than 2.0 μM) | < 25 | xxx (activity was measured to be less than 2.0 μM) | 
CCOC(=O)N1CCC(N2CCC3(CC2)CN(c2ccccc2OC)c2ccc(F)cc23)CC1 [compound 717] |  |  |  |  | 25 to 100 | xxx (activity was measured to be less than 2.0 μM) | 25 to 100 | xxx (activity was measured to be less than 2.0 μM) | 
CCOC(=O)N1CCC(N2CCC3(CC2)CN(c2ccccn2)c2ccc(F)cc23)CC1 [compound 585] |  |  |  |  | 25 to 100 | xxx (activity was measured to be less than 2.0 μM) | 25 to 100 | xxx (activity was measured to be less than 2.0 μM) | 
CCOC(=O)N1CC[C@H](CN2CCC3(CC2)CN(C(C)=O)c2cccc(C)c23)C1 [compound 940] |  |  |  |  | 25 to 100 |  | 25 to 100 |  | M1 Activity (M1 muscarinic receptor; [8]): xxx (activity was measured to be less than 2.0 μM); M4 Activity (M4 muscarinic receptor; [9]): xxx (activity was measured to be less than 2.0 μM)
CCOC(=O)N1CCC(N2CCC3(CC2)CN(C(C)=O)c2ccc(-c4ccccc4)cc23)CC1 [compound 126] | xxx (activity was measured to be less than 0.1 μM) | < 65 | x (activity was measured to be greater than 1.0 μM) | < 65 |  |  |  |  | 
CN(C)C(=O)NC1CCC2(CCN(CC3CCCCC3)CC2)c2ccccc21 (stereo not shown) [compound 673] |  |  |  |  | < 25 | x (activity was measured to be greater than 5.0 μM) | 25 to 100 | xx (activity was measured to be between 2.0 μM and 5.0 μM) | 
CCOC(=O)N1CCC(N2CCC3(CC(=O)c4cc(F)ccc43)C2)CC1 (stereo not shown) [compound 765] |  |  |  |  | 25 to 100 | x (activity was measured to be greater than 5.0 μM) | < 25 | x (activity was measured to be greater than 5.0 μM) | 
CCOC(=O)N1CCC(N2CCC3(CC2)CN(CC(=O)CC)c2ccc(F)cc23)CC1 [compound 303] | xx (activity was measured to be between 0.1 μM and 1.0 μM) | > 85 | x (activity was measured to be greater than 1.0 μM) | < 65 |  |  |  |  | 
Clc1ccc2c(c1)C1(CCO2)CCN(C2CCCCC2)CC1 [compound 276] | xxx (activity was measured to be less than 0.1 μM) | 65 to 85 | x (activity was measured to be greater than 1.0 μM) | 65 to 85 |  |  |  |  | 
CCOC(=O)N1CCC(N2CCC3(CC2)CN(C(C)=O)c2c(-c4ccc(C(N)=O)cc4)cccc23)CC1 [compound 629] |  |  |  |  | 25 to 100 | xx (activity was measured to be between 2.0 μM and 5.0 μM) | 25 to 100 | xx (activity was measured to be between 2.0 μM and 5.0 μM) | 
COCCOC(=O)N1CCC(N2CCC3(CC2)CN(C(C)=O)c2ccc(F)cc23)CC1 [compound 284] | xx (activity was measured to be between 0.1 μM and 1.0 μM) | < 65 | xx (activity was measured to be between 0.1 μM and 1.0 μM) | < 65 |  |  |  |  | 
CCOC(=O)N1CCC(N2CCC3(CC2)CN(C(C)=O)c2ccc(-c4ccc(C(F)(F)F)cc4)cc23)CC1 [compound 295] | xxx (activity was measured to be less than 0.1 μM) | 65 to 85 | xxx (activity was measured to be less than 0.1 μM) | 65 to 85 |  |  |  |  | 
CC(=O)CN1CC2(CCN(C3CCCCCC3)CC2)c2cc(F)ccc21 [compound 1009] |  |  |  |  | 25 to 100 |  | 25 to 100 |  | M1 Activity (M1 muscarinic receptor; [8]): xxx (activity was measured to be less than 2.0 μM); M4 Activity (M4 muscarinic receptor; [9]): xxx (activity was measured to be less than 2.0 μM)
COCCOC(=O)N1C2CCC1CC(N1CCC3(CC1)CN(C(C)=O)c1ccc(F)cc13)C2 (stereo not shown) [compound 76] | xxx (activity was measured to be less than 0.1 μM) | 65 to 85 | xx (activity was measured to be between 0.1 μM and 1.0 μM) | 65 to 85 |  |  |  |  | 
